Assay results published in PubChem BioAssay AID192 (DTP/NCI, 2004).
Values joined by “and” are separate entries in the source; they are usually repeats but may differ in a detail not shown here. Equal entries are not always repeated. Toxic doses and inconclusive results are not listed. The calls were made as follows: active = survival T/C of 150% or more; inactive = T/C below 125% in these data.

Tested on: BDF1 mice, B16 melanoma ip, median survival T/C
Assay: NCI In Vivo Anticancer Drug Screen. Data for tumor model B16 Melanoma (intraperitoneal) in B6D2F1 (BDF1) mice
Settings: endpoint: median survival time, higher = longer survival
How it was run: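 Read-out: survival or tumor size, given as treated/control ratio. Controls received vehicle only; animals bore transplantable tumors.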

Measured: T/C

CC(C(=O)O)C(NC(=O)OCc1ccccc1)C(=O)O (stereo unspecified)
inactive: dose: 100.0 mg/kg/injection, schedule: Q04DX003 (ip), vehicle: other 97 % of control | dose: 200.0 mg/kg/injection, schedule: Q04DX003 (ip), vehicle: other 89 % of control

O=Cc1ccc([N+](=O)[O-])s1
inactive: dose: 3.12 mg/kg/injection, schedule: Q01DX009 (ip), vehicle: saline with Tween-80 99 % of control | dose: 6.25 mg/kg/injection, schedule: Q01DX009 (ip), vehicle: saline with Tween-80 96 % of control | dose: 12.5 mg/kg/injection, schedule: Q01DX009 (ip), vehicle: saline with Tween-80 96 % of control | dose: 25.0 mg/kg/injection, schedule: Q01DX009 (ip), vehicle: saline with Tween-80 86 % of control

NC(C/[N+]([O-])=N/O)C(=O)O (stereo unspecified)
inactive: dose: 15.6 mg/kg/injection, schedule: Q01DX009 (ip), vehicle: saline 97 % of control | dose: 15.6 mg/kg/injection, schedule: Q01DX009 (ip), vehicle: water 105 % of control | dose: 15.6 mg/kg/injection, schedule: Q04DX003 (ip), vehicle: saline 100 % of control | dose: 15.6 mg/kg/injection, schedule: Q04DX003 (ip), vehicle: water 102 % of control | dose: 16.0 mg/kg/injection, schedule: Q01DX009 (ip), vehicle: saline 117 % of control | dose: 31.3 mg/kg/injection, schedule: Q01DX009 (ip), vehicle: saline 102 % of control and 105 % of control | dose: 31.3 mg/kg/injection, schedule: Q01DX009 (ip), vehicle: water 108 % of control | dose: 31.3 mg/kg/injection, schedule: Q04DX003 (ip), vehicle: saline 97 % of control | dose: 31.3 mg/kg/injection, schedule: Q04DX003 (ip), vehicle: water 97 % of control | dose: 62.5 mg/kg/injection, schedule: Q01DX009 (ip), vehicle: saline 111 % of control | dose: 62.5 mg/kg/injection, schedule: Q01DX009 (ip), vehicle: water 111 % of control | dose: 62.5 mg/kg/injection, schedule: Q04DX003 (ip), vehicle: saline 100 % of control and 95 % of control | dose: 62.5 mg/kg/injection, schedule: Q04DX003 (ip), vehicle: water 108 % of control | dose: 100.0 mg/kg/injection, schedule: Q04DX003 (ip), vehicle: saline with Tween-80 100 % of control | dose: 125.0 mg/kg/injection, schedule: Q04DX003 (ip), vehicle: saline 97 % of control and 111 % of control | dose: 125.0 mg/kg/injection, schedule: Q04DX003 (ip), vehicle: water 111 % of control | dose: 200.0 mg/kg/injection, schedule: Q04DX003 (ip), vehicle: saline with Tween-80 100 % of control | dose: 250.0 mg/kg/injection, schedule: Q04DX003 (ip), vehicle: saline 100 % of control and 109 % of control | dose: 250.0 mg/kg/injection, schedule: Q04DX003 (ip), vehicle: water 111 % of control | dose: 400.0 mg/kg/injection, schedule: Q04DX003 (ip), vehicle: saline with Tween-80 106 % of control | dose: 500.0 mg/kg/injection, schedule: Q04DX003 (ip), vehicle: saline 107 % of control | dose: 500.0 mg/kg/injection, schedule: Q04DX003 (ip), vehicle: water 97 % of control

CNC(C)Cc1ccccc1 (stereo unspecified)
inactive: dose: 3.75 mg/kg/injection, schedule: Q01DX009 (ip), vehicle: saline 95 % of control | dose: 15.0 mg/kg/injection, schedule: Q01DX009 (ip), vehicle: saline 95 % of control | dose: 30.0 mg/kg/injection, schedule: Q01DX009 (ip), vehicle: saline 95 % of control

CCC1(O)CC(OC2CC(N(C)C)C(OC3CC(O)C(OC4CCC(=O)C(C)O4)C(C)O3)C(C)O2)c2c(cc3c(c2O)C(=O)c2c(O)ccc(O)c2C3=O)C1C(=O)OC (stereo unspecified)
inactive: dose: 0.23 mg/kg/injection, schedule: Q01DX009 (ip), vehicle: saline with Tween-80 98 % of control | dose: 3.6 mg/kg/injection, schedule: Q01DX001 (ip), vehicle: water 101 % of control and 109 % of control | dose: 6.0 mg/kg/injection, schedule: Q01DX001 (ip), vehicle: water 106 % of control and 112 % of control | dose: 10.0 mg/kg/injection, schedule: Q01DX001 (ip), vehicle: water 111 % of control

C=C(NC(C)=O)C(=O)CCC(N)=O
inactive: dose: 5.0 mg/kg/injection, schedule: Q01DX009 (ip), vehicle: saline 92 % of control | dose: 10.0 mg/kg/injection, schedule: Q01DX009 (ip), vehicle: saline 102 % of control | dose: 20.0 mg/kg/injection, schedule: Q01DX009 (ip), vehicle: saline 97 % of control

CCC(=O)c1ccc(NC(C)=O)cc1
inactive: dose: 100.0 mg/kg/injection, schedule: Q04DX003 (ip), vehicle: Klucel (hydroxypropylcellulose) (HPC) 102 % of control | dose: 200.0 mg/kg/injection, schedule: Q04DX003 (ip), vehicle: Klucel (hydroxypropylcellulose) (HPC) 96 % of control | dose: 400.0 mg/kg/injection, schedule: Q04DX003 (ip), vehicle: Klucel (hydroxypropylcellulose) (HPC) 98 % of control
